These compounds were tested against T1, Gag-Pol polyprotein [588-1027,K690N]/[588-1147,K690N] (Human immunodeficiency virus 1, UniProt P04585, K690N) (assay: HIV-1 RT Assay). Details: pH 7.8; 37 °C.
T1 construct: 588-1027; 588-1147
Compound `Cc1cc(C)cc(S(=O)(=O)c2c(C(N)=O)[nH]c3ccc(Cl)cc23)c1` [5-chloro-3-[(3,5-dimethylbenzene)sulfonyl]-1H-indole-2-carboxamide] has an IC50 of over 5000 nM.
Compound `Cc1ccc(S(=O)(=O)c2c(C(N)=O)[nH]c3ccc(Cl)cc23)cc1` [5-chloro-3-[(4-methylbenzene)sulfonyl]-1H-indole-2-carboxamide] has an IC50 of over 5000 nM.
Compound `NC(=O)c1[nH]c2ccc(Cl)cc2c1S(=O)(=O)c1ccccc1` [5Cl3PhSO2-2IndolCONH2] has an IC50 of over 5000 nM.

Each compound was assayed against T2, Gag-Pol polyprotein [588-1127,Y768C]/[588-1147,Y768C] (Human immunodeficiency virus 1, UniProt P04585, Y768C) (assay: HIV-1 RT Assay). Details: pH 7.8; 37 °C.
T2 construct: 588-1127; 588-1147
`Cc1cc(C)cc(S(=O)(=O)c2c(C(N)=O)[nH]c3ccc(Cl)cc23)c1` [5-chloro-3-[(3,5-dimethylbenzene)sulfonyl]-1H-indole-2-carboxamide] showed an IC50 of 130 nM.
With `Cc1ccc(S(=O)(=O)c2c(C(N)=O)[nH]c3ccc(Cl)cc23)cc1` [5-chloro-3-[(4-methylbenzene)sulfonyl]-1H-indole-2-carboxamide] the IC50 was 110 nM.
`NC(=O)c1[nH]c2ccc(Cl)cc2c1S(=O)(=O)c1ccccc1` [5Cl3PhSO2-2IndolCONH2] was tested, and the IC50 was 160 nM.

— BindingDB's records for doi:10.1021/jm0211063 (Sapienza University of Rome, 2003)
